Data taken from patent US20050004124A1, “THERAPIES RELATING TO COMBINATIONS OF ALDOSE REDUCTASE INHIBITORS AND CYCLOOXYGENASE-2 INHIBITORS” (priority 2001, published 2005).

Row | Compound | melting point
1 | Cn1c(S(=O)(=O)c2ccc(=O)[nH]n2)cc2ccccc21 [Example 40, 6-(N-Methylindole-2-sulfonyl)-2H-pyridazin-3-one] | 233 to 235 °C
2 | O=c1ccc(S(=O)(=O)c2oc3ccccc3c2O)n[nH]1 [Example 16, 6-(3-Hydroxy-benzofuran-2-sulfonyl)-2H-pyridazin-3-one] | 186 to 189 °C
3 | O=c1ccc(S(=O)(=O)c2[nH]c3ccccc3c2Cl)n[nH]1 [Example 36, 6-(3-Chloro-indole-2-sulfonyl)-2H-pyridazin-3-one] | 250 °C
